Experiments:
[1] = target: T1, Prostaglandin G/H synthase 2 (Ovis aries, UniProt P79208); test: Inhibition of sheep COX2-mediated PGE2 production after 2 mins by liquid scintillation counting
T1 sequence (P79208 whole entry): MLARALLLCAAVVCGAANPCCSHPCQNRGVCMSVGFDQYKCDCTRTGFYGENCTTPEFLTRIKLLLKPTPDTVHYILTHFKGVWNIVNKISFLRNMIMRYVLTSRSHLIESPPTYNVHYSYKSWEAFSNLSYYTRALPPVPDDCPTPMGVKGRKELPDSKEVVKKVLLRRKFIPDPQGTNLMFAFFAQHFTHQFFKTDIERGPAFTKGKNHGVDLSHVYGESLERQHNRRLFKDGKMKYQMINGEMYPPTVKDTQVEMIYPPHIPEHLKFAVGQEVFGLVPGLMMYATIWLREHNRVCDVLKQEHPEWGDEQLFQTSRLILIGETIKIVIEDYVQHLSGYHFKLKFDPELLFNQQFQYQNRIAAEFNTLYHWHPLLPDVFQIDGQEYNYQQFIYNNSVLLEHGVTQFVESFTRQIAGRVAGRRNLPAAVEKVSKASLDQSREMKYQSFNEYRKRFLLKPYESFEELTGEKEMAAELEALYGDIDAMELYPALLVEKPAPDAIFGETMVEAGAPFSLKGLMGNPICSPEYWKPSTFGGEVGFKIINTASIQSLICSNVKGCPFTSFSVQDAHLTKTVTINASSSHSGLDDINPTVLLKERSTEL

[2] = target: T2, Prostaglandin G/H synthase 1 (Ovis aries, UniProt P05979); test: Inhibition of sheep COX1-mediated PGE2 production after 2 mins by liquid scintillation counting
T2 sequence (P05979 whole entry): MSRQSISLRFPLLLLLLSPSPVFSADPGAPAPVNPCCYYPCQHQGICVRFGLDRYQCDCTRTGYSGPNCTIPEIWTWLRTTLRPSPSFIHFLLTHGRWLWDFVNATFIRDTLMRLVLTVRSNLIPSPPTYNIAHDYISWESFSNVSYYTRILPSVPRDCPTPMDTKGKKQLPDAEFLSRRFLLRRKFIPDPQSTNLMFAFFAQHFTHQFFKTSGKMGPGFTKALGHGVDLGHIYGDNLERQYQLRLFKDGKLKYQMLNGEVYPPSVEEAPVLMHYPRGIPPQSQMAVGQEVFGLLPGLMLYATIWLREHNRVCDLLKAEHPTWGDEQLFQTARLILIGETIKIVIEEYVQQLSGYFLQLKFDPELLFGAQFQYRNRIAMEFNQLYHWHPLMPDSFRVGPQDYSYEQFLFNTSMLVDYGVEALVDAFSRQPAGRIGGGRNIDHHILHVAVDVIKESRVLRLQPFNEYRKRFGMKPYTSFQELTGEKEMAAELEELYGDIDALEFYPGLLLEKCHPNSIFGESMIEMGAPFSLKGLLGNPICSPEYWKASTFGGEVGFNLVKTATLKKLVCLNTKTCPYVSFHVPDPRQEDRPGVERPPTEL

With `CCCCCCCCCCCC(=O)O[C@@H]1[C@@H](O)[C@@H](OC(=O)/C=C/c2ccccc2)[C@H](O[C@@H]2[C@@H](O)[C@@H](OC(=O)CCCCCCCCC)[C@H](O[C@@H]3[C@H]4OC(=O)CCCCCCCCC[C@H](CCCCC)O[C@@H]5O[C@H](C)[C@H](O)[C@H](O)[C@H]5O[C@H](O[C@H]3C)[C@@H]4O)O[C@H]2C)O[C@H]1C` [IPOMOTAOSIDE C] the IC50 [1] was “Not Active” and the IC50 [2] was “Not Active”.
`CCCCCCCCCCCC(=O)O[C@@H]1[C@@H](O)[C@@H](OC(=O)/C=C/c2ccccc2)[C@H](O[C@@H]2[C@@H](OC(=O)CCCCCCCCC)[C@@H](O)[C@H](O[C@@H]3[C@@H](O)[C@H]4OC(=O)CCCCCCCCC[C@H](CCCCC)O[C@@H]5O[C@H](C)[C@H](O)[C@H](O)[C@H]5O[C@@H]4O[C@H]3C)O[C@H]2C)O[C@H]1C` [IPOMOTAOSIDE A] was tested, and the IC50 ([1]; read-out: IC50) was 14.5 µM and the IC50 ([2]; read-out: IC50) was 9.3 µM.
With `CCCCCCCCCCCC(=O)O[C@@H]1[C@@H](O)[C@@H](OC(=O)/C=C/c2ccccc2)[C@H](O[C@@H]2[C@@H](OC(=O)CCCCCCCCC)[C@@H](O)[C@H](O[C@@H]3[C@H]4OC(=O)CCCCCCCCC[C@H](CCCCC)O[C@@H]5O[C@H](C)[C@H](O)[C@H](O)[C@H]5O[C@H](O[C@H]3C)[C@@H]4O)O[C@H]2C)O[C@H]1C` [IPOMOTAOSIDE D] the IC50 [1] was “Not Active” and the IC50 [2] was “Not Active”.
`CCCCCCCCCCCC(=O)O[C@@H]1[C@@H](O)[C@@H](OC(=O)/C=C/c2ccccc2)[C@H](O[C@@H]2[C@@H](O)[C@@H](OC(=O)CCCCCCCCCCC)[C@H](O[C@@H]3[C@@H](O)[C@H]4OC(=O)CCCCCCCCC[C@H](CCCCC)O[C@@H]5O[C@H](C)[C@H](O)[C@H](O)[C@H]5O[C@@H]4O[C@H]3C)O[C@H]2C)O[C@H]1C` [IPOMOTAOSIDE B] gave an IC50 ([1]; read-out: IC50) of 147 µM and an IC50 ([2]; read-out: IC50) of 132 µM.
